Reference: PubChem BioAssay AID1963842 (Molecular Pharmacology Branch, DTP, NCI, 2024)

Test system: 677734-321-R-J1-PDC complex spheroid viability
Test: Anticancer human tumor 677734-321-R-J1-PDC patient-derived soft tissue sarcoma cell line growth inhibition [POLQ]
Conditions: for IC50: curve of first compound; for viability, T/C: stronger effect = lower value
In short: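 Complex spheroid viability model combining PDC tumour cells with endothelial (HUVEC) and MSC stromal cells. Novobiocin, ART-558 or RP6685 were tested singly and in combination with standard and investigational anticancer drugs. Each was titrated in half-log steps from near clinical Cmax, or from 10 microM where Cmax was unknown.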

[1] = second compound 0.0316 µM, first compound 0.0316 µM
[2] = second compound 0.0316 µM, first compound 0.1 µM
[3] = second compound 0.0316 µM, first compound 0.316 µM
[4] = second compound 0.0316 µM, first compound 1 µM
[5] = second compound 0.0316 µM, first compound 3.16 µM
[6] = second compound 0.0316 µM, first compound 10 µM
[7] = second compound 0.1 µM, first compound 0.0316 µM
[8] = second compound 0.1 µM, first compound 0.1 µM
[9] = second compound 0.1 µM, first compound 0.316 µM
[10] = second compound 0.1 µM, first compound 1 µM
[11] = second compound 0.1 µM, first compound 3.16 µM
[12] = second compound 0.1 µM, first compound 10 µM
[13] = second compound 0.316 µM, first compound 0.0316 µM
[14] = second compound 0.316 µM, first compound 0.1 µM
[15] = second compound 0.316 µM, first compound 0.316 µM
[16] = second compound 0.316 µM, first compound 1 µM
[17] = second compound 0.316 µM, first compound 3.16 µM
[18] = second compound 0.316 µM, first compound 10 µM
[19] = second compound 1 µM, first compound 0.0316 µM
[20] = second compound 1 µM, first compound 0.1 µM
[21] = second compound 1 µM, first compound 0.316 µM
[22] = second compound 1 µM, first compound 1 µM
[23] = second compound 1 µM, first compound 3.16 µM
[24] = second compound 1 µM, first compound 10 µM
[25] = second compound 3.16 µM, first compound 0.0316 µM
[26] = second compound 3.16 µM, first compound 0.1 µM
[27] = second compound 3.16 µM, first compound 0.316 µM
[28] = second compound 3.16 µM, first compound 1 µM
[29] = second compound 3.16 µM, first compound 3.16 µM
[30] = second compound 3.16 µM, first compound 10 µM
[31] = second compound 10 µM, first compound 0.0316 µM
[32] = second compound 10 µM, first compound 0.1 µM
[33] = second compound 10 µM, first compound 0.316 µM
[34] = second compound 10 µM, first compound 1 µM
[35] = second compound 10 µM, first compound 3.16 µM
[36] = second compound 10 µM, first compound 10 µM
[37] = second compound 0.0316 µM, first compound 0.00316 µM
[38] = second compound 0.0316 µM, first compound 0.01 µM
[39] = second compound 0.1 µM, first compound 0.00316 µM
[40] = second compound 0.1 µM, first compound 0.01 µM
[41] = second compound 0.316 µM, first compound 0.00316 µM
[42] = second compound 0.316 µM, first compound 0.01 µM
[43] = second compound 1 µM, first compound 0.00316 µM
[44] = second compound 1 µM, first compound 0.01 µM
[45] = second compound 3.16 µM, first compound 0.00316 µM
[46] = second compound 3.16 µM, first compound 0.01 µM
[47] = second compound 10 µM, first compound 0.00316 µM
[48] = second compound 10 µM, first compound 0.01 µM
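Note: spheroids exposed to compounds for one week.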
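Throughout, for viability, T/C: 100% = vehicle DMSO treated spheroids.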

CNCc1ccc(-c2[nH]c3cc(F)cc4c3c2CCNC4=O)cc1 + Cc1cccc(N(C)C(=O)C2C(O)CCN2c2nc(C)cc(C(F)(F)F)c2C#N)c1
IC50 (second compound 0.0316 µM): > 10000 nM
IC50 (second compound 0.1 µM): > 10000 nM
IC50 (second compound 0.316 µM): > 10000 nM
IC50 (second compound 1 µM): > 10000 nM
IC50 (second compound 3.16 µM): > 10000 nM
IC50 (second compound 10 µM): > 10000 nM
viability, T/C [1]: 107%
viability, T/C [2]: 104%
viability, T/C [3]: 107%
viability, T/C [4]: 106%
viability, T/C [5]: 107%
viability, T/C [6]: 107%
viability, T/C [7]: 108%
viability, T/C [8]: 110%
viability, T/C [9]: 103%
viability, T/C [10]: 101%
viability, T/C [11]: 106%
viability, T/C [12]: 105%
viability, T/C [13]: 120%
viability, T/C [14]: 104%
viability, T/C [15]: 104%
viability, T/C [16]: 105%
viability, T/C [17]: 113%
viability, T/C [18]: 98.9%
viability, T/C [19]: 108%
viability, T/C [20]: 94.9%
viability, T/C [21]: 104%
viability, T/C [22]: 114%
viability, T/C [23]: 106%
viability, T/C [24]: 107%
viability, T/C [25]: 110%
viability, T/C [26]: 96.5%
viability, T/C [27]: 102%
viability, T/C [28]: 108%
viability, T/C [29]: 107%
viability, T/C [30]: 99.3%
viability, T/C [31]: 109%
viability, T/C [32]: 95.2%
viability, T/C [33]: 104%
viability, T/C [34]: 101%
viability, T/C [35]: 91.4%
viability, T/C [36]: 98.6%

COc1cccc(OCCCN)c1-c1cc(Nc2cnc(C#N)cn2)n[nH]1 + Cc1cccc(N(C)C(=O)C2C(O)CCN2c2nc(C)cc(C(F)(F)F)c2C#N)c1
IC50 (second compound 0.0316 µM): 5.14 nM
IC50 (second compound 0.1 µM): 5.54 nM
IC50 (second compound 0.316 µM): 5.35 nM
IC50 (second compound 1 µM): 3.49 nM
IC50 (second compound 3.16 µM): 4.87 nM
IC50 (second compound 10 µM): < 3.16 nM
viability, T/C [37]: 80.6%
viability, T/C [38]: 8.11%
viability, T/C [1]: 6.8%
viability, T/C [2]: 5.31%
viability, T/C [3]: 4.65%
viability, T/C [4]: 4.03%
viability, T/C [39]: 89.8%
viability, T/C [40]: 8.11%
viability, T/C [7]: 6.65%
viability, T/C [8]: 5.48%
viability, T/C [9]: 6.82%
viability, T/C [10]: 4.61%
viability, T/C [41]: 84.1%
viability, T/C [42]: 9.52%
viability, T/C [13]: 6.22%
viability, T/C [14]: 5.29%
viability, T/C [15]: 5.08%
viability, T/C [16]: 4.86%
viability, T/C [43]: 53.9%
viability, T/C [44]: 8.32%
viability, T/C [19]: 6.96%
viability, T/C [20]: 6.49%
viability, T/C [21]: 5.31%
viability, T/C [22]: 4.98%
viability, T/C [45]: 70.3%
viability, T/C [46]: 16.3%
viability, T/C [25]: 7.33%
viability, T/C [26]: 5.44%
viability, T/C [27]: 6.24%
viability, T/C [28]: 4.93%
viability, T/C [47]: 48.1%
viability, T/C [48]: 11.5%
viability, T/C [31]: 7.44%
viability, T/C [32]: 5.3%
viability, T/C [33]: 6.55%
viability, T/C [34]: 4.1%

Cn1ncnc1[C@H]1c2n[nH]c(=O)c3cc(F)cc(c23)N[C@@H]1c1ccc(F)cc1 + Cc1cccc(N(C)C(=O)C2C(O)CCN2c2nc(C)cc(C(F)(F)F)c2C#N)c1
IC50 (second compound 0.0316 µM): > 100 nM
IC50 (second compound 0.1 µM): > 100 nM
IC50 (second compound 0.316 µM): > 100 nM
IC50 (second compound 1 µM): > 100 nM
IC50 (second compound 3.16 µM): > 100 nM
IC50 (second compound 10 µM): > 100 nM
viability, T/C (second compound 0.0316 µM, first compound 0.000316 µM): 110%
viability, T/C (second compound 0.0316 µM, first compound 0.001 µM): 102%
viability, T/C [37]: 100%
viability, T/C [38]: 107%
viability, T/C [1]: 104%
viability, T/C [2]: 87.3%
viability, T/C (second compound 0.1 µM, first compound 0.000316 µM): 103%
viability, T/C (second compound 0.1 µM, first compound 0.001 µM): 99.7%
viability, T/C [39]: 102%
viability, T/C [40]: 107%
viability, T/C [7]: 101%
viability, T/C [8]: 95.1%
viability, T/C (second compound 0.316 µM, first compound 0.000316 µM): 103%
viability, T/C (second compound 0.316 µM, first compound 0.001 µM): 97.8%
viability, T/C [41]: 102%
viability, T/C [42]: 102%
viability, T/C [13]: 102%
viability, T/C [14]: 96.2%
viability, T/C (second compound 1 µM, first compound 0.000316 µM): 109%
viability, T/C (second compound 1 µM, first compound 0.001 µM): 96.4%
viability, T/C [43]: 96.9%
viability, T/C [44]: 103%
viability, T/C [19]: 96%
viability, T/C [20]: 94.5%
viability, T/C (second compound 3.16 µM, first compound 0.000316 µM): 100%
viability, T/C (second compound 3.16 µM, first compound 0.001 µM): 98.7%
viability, T/C [45]: 101%
viability, T/C [46]: 99%
viability, T/C [25]: 102%
viability, T/C [26]: 91.3%
viability, T/C (second compound 10 µM, first compound 0.000316 µM): 103%
viability, T/C (second compound 10 µM, first compound 0.001 µM): 92.1%
viability, T/C [47]: 101%
viability, T/C [48]: 97.9%
viability, T/C [31]: 91.3%
viability, T/C [32]: 91.1%

O=C(c1cc(Cc2n[nH]c(=O)c3ccccc23)ccc1F)N1CCN(C(=O)C2CC2)CC1 + Cc1cccc(N(C)C(=O)C2C(O)CCN2c2nc(C)cc(C(F)(F)F)c2C#N)c1
IC50 (second compound 0.0316 µM): > 10000 nM
IC50 (second compound 0.1 µM): > 10000 nM
IC50 (second compound 0.316 µM): > 10000 nM
IC50 (second compound 1 µM): > 10000 nM
IC50 (second compound 3.16 µM): > 10000 nM
IC50 (second compound 10 µM): > 10000 nM
viability, T/C [1]: 108%
viability, T/C [2]: 95.2%
viability, T/C [3]: 101%
viability, T/C [4]: 97.2%
viability, T/C [5]: 96.8%
viability, T/C [6]: 83%
viability, T/C [7]: 105%
viability, T/C [8]: 103%
viability, T/C [9]: 101%
viability, T/C [10]: 99.3%
viability, T/C [11]: 95.4%
viability, T/C [12]: 80%
viability, T/C [13]: 103%
viability, T/C [14]: 103%
viability, T/C [15]: 97.5%
viability, T/C [16]: 94.6%
viability, T/C [17]: 100%
viability, T/C [18]: 80.2%
viability, T/C [19]: 115%
viability, T/C [20]: 93.3%
viability, T/C [21]: 102%
viability, T/C [22]: 103%
viability, T/C [23]: 100%
viability, T/C [24]: 84.7%
viability, T/C [25]: 110%
viability, T/C [26]: 95.8%
viability, T/C [27]: 103%
viability, T/C [28]: 99.6%
viability, T/C [29]: 98.9%
viability, T/C [30]: 81.6%
viability, T/C [31]: 99.8%
viability, T/C [32]: 101%
viability, T/C [33]: 94.1%
viability, T/C [34]: 96.4%
viability, T/C [35]: 89.4%
viability, T/C [36]: 80.4%
